The values that follow come from patent publication US20200375929A1, “METHODS AND COMPOSITIONS FOR THE TREATMENT OF DISEASES ASSOCIATED WITH CANCER, INFLAMMATION, OR IMMUNE RESPONSE” (Washington University, priority 2017, published 2020).

Each structure is given as a SMILES string. “Also recorded” adds a separate entry of the source.

One experiment deals with BMDMs. Put plainly: Nascent protein synthesis (Click chemistry labeling) and proteomic profiling in BMDMs. The format is cell-based, mouse. The conditions noted are these: DI, LPS 1 h, metabolic labeling, proteomics. The protocol:
BMDMs were plated 2×10^6 cells per well in 6-well plates. Cells were either (1) treated with DI (250 μM) for 12 h and then stimulated with LPS (100 ng/mL) for 1 h, or (2) only stimulated with LPS (100 ng/mL) for 1 h, or (3) only treated with DI (250 μM) for 12 h, or (4) neither treated with DI nor LPS. Cells were then washed 3× with PBS and lysed in 200 μL of urea buffer (8 M urea, 75 mM NaCl, 50 mM Tris pH 8.0, 1 mM EDTA). Lysates were then cleared by centrifugation at 20,000 g and protein concentrations were determined by BCA assay (Pierce). 15 μg of total protein per sample were processed further. Disulfide bonds were reduced with 5 mM dithiothreitol and cysteines were subsequently alkylated with 10 mM iodoacetamide. Samples were diluted 1:4 with 50 mM Tris/HCl (pH 8.0) and sequencing grade modified trypsin (Promega) was added in an enzyme-to-substrate ratio of 1:50. After 16 h of digestion, samples were acidified with 1% formic acid (final concentration). […]
BMDMs were grown in 12-well plate, […] per well and treated with DI (250 μM) for 10 h. […] Total protein concentration was determined using RC/DC™ Protein Assay (Biorad). […] Proteins were separated on 4%-20% polyacrylamide gradient gels (BioRad) and biotinylated proteins were detected by western blot with streptavidin-HRP conjugate (1:1000, #554066, BD Pharmingen). […]

A further experiment concerns IκBζ. Put plainly: LPS-induced Ikb-ζ protein induction in BMDMs (western blot). The class given is cell-based, mouse. The protocol: BMDM were prepared from 6- to 12-week-old mice as described 1 and cultured in RMPI-1640 medium supplemented with 10% fetal bovine serum (FBS), 2 mM L-glutamine, and 100 U/mL penicillin-streptomycin and mouse recombinant M-CSF ([…], Peprotech). For experiments, cells were seeded at concentration 10^6 cells/mL in tissue culture plates of various formats. The cells were treated with DI (250 μM (unless stated otherwise), cat #592498, Sigma), DMF (50 μM (unless stated otherwise), cat #242926, Sigma), 3-(ethoxycarbonyl)but-3-enoic acid (3MI, 5 μM, Aris Pharmaceuticals Inc.), 4-ethoxy-2-methylene-4-oxobutanoic acid (MI, Aris Pharmaceuticals Inc.) for 12 h and activated with lipopolysaccharide (LPS; 100 ng/mL; E. coli 0111:B4, Sigma) for 1 h or as indicated. In some experiments cells were stimulated with combination of LPS (20 ng/mL) and IFN-γ (50 ng/mL; Peprotech). In some experiments cells were treated with α-tocopherol (AT, 10 μM; Sigma), MitoTEMPO (MT, 500 μM; Sigma), N-acetylcysteine (NAC, 1 mM, Sigma), ethylester of GSH (EtGSH; 1 mM, Santa Cruz) or buthionene sulfoximine (BSO, 500 μM, Sigma) alone or in combination with DI for 12 h. In some experiments BMDMs were treated with DI for 12 h and bafilomycin A (BafA, 100 nM, Sigma) or MG132 (10 μM, Selleckchem) were added 30 min before subsequent LPS stimulation.
Cells were lysed in RIPA Lysis Buffer System (Santa Cruz) and heat-denatured at 95° C. for 5 min in reducing sample buffer (BioRad). Proteins were separated on 4%-20% polyacrylamide gradient gels (BioRad) and transferred onto 0.45 μm pore size PVDF membranes (Millipore). Non-specific binding was blocked with 5% skim milk (or 5% BSA when phospho-proteins were analyzed), and membranes were probed with primary antibodies specific to Nrf2 (#12721), HO-1 (#70081), IκBζ (mouse specific, #93726), IκBζ(#9244), ATF3 (#D2Y5W), IRAK1 (#4504; sensitivity of IRAK1 detection diminishes upon IRAK1 K63 ubiquitination), phospho-IKK (Ser176/180, #2697), p62/SQSTM1 (#5114), phospho-eIF2α (Ser51, #9721), eIF2α (#5324) from Cell Signaling; GAPDH (sc-25778), IκBα (sc-1643), ATF3 (sc-188), SDHA (sc-166909) from Santa Cruz; NQO1 (ab28947) from Abeam, followed by incubation with anti-rabbit-HRP (1:10,000; sc-2030) or anti-mouse-HRP (1:10,000; sc-2031) from Santa Cruz and Clarity western ECL substrate (Bio-Rad). Membranes were exposed to X-Ray films (Research Products International Corp.) and developed using SRX-101A film processor (Konica Minolta). GAPDH run on the same blot was used as loading control. After scanning of original films image brightness of some blots was adjusted and bands were cropped using ImageJ. Densitometry was performed using ImageJ.
Background: A western blot detects proteins with antibodies after separation by electrophoresis.

Take `C=C(CC(=O)OC)C(=O)OC` [DI, dimethyl itaconate]: in the experiment on BMDMs, the global protein synthesis entry was “did not affect protein synthesis globally”. In the experiment with IκBζ (Atf3−/− BMDMs, DI, LPS), the “IκBζ protein levels upon DI treatment in Atf3−/− cells” value was “restored IκBζ protein levels”. For the same compound, in the experiment on IκBζ (BMDMs treated with compound 12 h, then LPS 100 ng/ml), the “LPS-induced Ikb-ζ induction, protein level” value is “almost complete inhibition; also recorded: completely abolished; also recorded: inhibited IκBζ induction”. The “effect on IκBζ/IL-6 in combination with BSO” value in the experiment on IκBζ (BMDMs, compound plus BSO 500 μM, LPS) was “enhanced the inhibitory effect”. In addition, the “DI inhibition of Ikb-ζ induction in Nrf2-deficient cells” value with IκBζ (Nrf2 KO BMDMs, DI 250 μM 12 h, LPS) is reported as “did not affect inhibition of Ikb-ζ induction; also recorded: did not alleviate”. The “IκBζ inhibition by DI in p62/SQSTM1- or HO-1-lacking macrophages” value with IκBζ (macrophages genetically lacking p62/SQSTM1 or HO-1) is listed as “did not rescue IκBζ inhibition by DI”.
